Target: T1, human ENPP1 (Homo sapiens, UniProt P22413)
T1 construct: purchased Biovendor AP-18-081; host or cells: HEK293
T1 sequence (P22413 1-925): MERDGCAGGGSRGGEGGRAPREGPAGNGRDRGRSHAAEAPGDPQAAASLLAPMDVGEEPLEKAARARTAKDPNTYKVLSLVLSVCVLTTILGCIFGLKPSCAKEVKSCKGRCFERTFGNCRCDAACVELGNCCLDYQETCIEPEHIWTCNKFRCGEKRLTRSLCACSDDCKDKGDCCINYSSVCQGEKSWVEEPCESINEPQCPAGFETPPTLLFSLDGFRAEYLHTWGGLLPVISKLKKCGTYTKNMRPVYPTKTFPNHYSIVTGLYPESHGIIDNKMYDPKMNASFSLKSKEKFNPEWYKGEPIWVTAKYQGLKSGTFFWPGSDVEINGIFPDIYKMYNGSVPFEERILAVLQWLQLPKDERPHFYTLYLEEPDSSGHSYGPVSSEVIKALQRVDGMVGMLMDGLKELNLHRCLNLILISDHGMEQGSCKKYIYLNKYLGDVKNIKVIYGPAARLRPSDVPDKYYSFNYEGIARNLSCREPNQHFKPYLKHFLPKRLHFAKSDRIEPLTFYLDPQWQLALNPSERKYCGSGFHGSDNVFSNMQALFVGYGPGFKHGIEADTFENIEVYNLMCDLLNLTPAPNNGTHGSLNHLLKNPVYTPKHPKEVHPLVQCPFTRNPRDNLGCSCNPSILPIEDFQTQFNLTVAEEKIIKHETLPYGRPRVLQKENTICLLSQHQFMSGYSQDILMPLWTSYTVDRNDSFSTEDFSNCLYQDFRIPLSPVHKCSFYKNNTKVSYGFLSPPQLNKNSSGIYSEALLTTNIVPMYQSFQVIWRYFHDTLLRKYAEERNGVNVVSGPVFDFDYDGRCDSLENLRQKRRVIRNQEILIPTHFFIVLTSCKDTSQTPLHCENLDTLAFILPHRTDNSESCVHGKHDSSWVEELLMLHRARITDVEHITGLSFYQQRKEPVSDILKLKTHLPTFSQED
Experiment: In vitro enzyme activity assay: human ENPP1 enzymatic assay (cGAMP), AMP-Glo
Format: biochemical
Details: substrate cGAMP, AMP-Glo detection
Experimental: AMP-Glo Assay Kit (PROMEGA, V5012), ENPP-1-IN-1 (MCE, HY-129490), white opaque 384-well plate (Perkin Elmer, 6008289), Mammalian (non-canonical) CDN, cyclic[g(2′,5′)pA(3′,5′)p](referred to as cGAMP hereinafter, Invivogen, tlrl-nacga23-5), ENPP1 Protein Human HEK293 (Biovendor, AP-18-081).
• 1) Preparing 1× reaction buffer (Tris buffer), 1× enzyme buffer, and 1× substrate buffer; • 2) diluting the compounds using Echo550 and supplementing with DMSO; • 3) pre-loading 2.5 μL of enzyme solution on a reaction plate (adding 2.5 μL of buffer instead as negative control) and incubating it at room temperature; • 4) adding 2.5 μL of substrate solution to the system and incubating it at room temperature; • 5) adding 5 μL of AMP-Glo solution that has been allowed to cooled down to room temperature, centrifuging and reacting at room temperature, • 6) adding 10 μL of AMP Detection solution at room temperature, centrifuging and reacting at room temperature; and • 7) reading the plate using EnVision.

IC50 [nM] | Compound
< 10 | O=c1n(CCC(F)(F)F)c2cnc3c4c(ccc3c2n1Cc1ccc(P(=O)(O)O)c(F)c1)OCO4 [Compound 24]
< 10 | O=c1n(CCCF)c2cnc3c4c(ccc3c2n1Cc1ccc(P(=O)(O)O)c(F)c1)OCO4 [Compound 26]
< 10 | Cc1cc(P(=O)(O)O)c(F)cc1Cn1c(=O)[nH]c2cnc3c4c(ccc3c21)OCO4 [Compound 14]
< 10 | O=c1n(Cc2ccc(P(=O)(O)O)c(F)c2)c2c3ccc4c(c3ncc2n1C1CCCC1)OCO4 [Compound 27]
< 10 | Cn1c(=O)n(Cc2c(F)cc(B(O)O)cc2F)c2c3ccc4c(c3ncc21)OCO4 [Compound 47]
< 10 | O=c1n(CC2CCC(F)(F)CC2)c2cnc3c4c(ccc3c2n1Cc1ccc(P(=O)(O)O)c(F)c1)OCO4 [Compound 21]
< 10 | Cn1c(=O)n(Cc2ccc(S(C)(=N)=O)cc2)c2c3ccc4c(c3ncc21)OCO4 (stereo not drawn) [Compound 44]
10 to 50 | C[S@@](=N)(=O)c1ccc(Cn2c(=O)[nH]c3cnc4c5c(ccc4c32)OCO5)cc1 (single isomer, unassigned) [Compound 43-P1]
< 10 | O=c1[nH]c2cnc3c4c(ccc3c2n1Cc1c(F)cc(P(=O)(O)O)cc1F)OCO4 [Compound 2, (3,5-difluoro-4-((7-oxo-6,7-dihydro-8H-[1,3]dioxolo[4,5-h]imidazo[4,5-c]quinolin-8-yl)methyl)phenyl)phosphonic acid]
< 10 | CN(C)CCn1c(=O)n(Cc2c(F)cc(S(N)(=O)=O)cc2F)c2c3ccc4c(c3ncc21)OCO4 [Compound 53]
< 10 | COc1cc(Cn2c(=O)[nH]c3cnc4c5c(ccc4c32)OCO5)ccc1P(=O)(O)O [Compound 49]
< 10 | CC(C)(C)Cn1c(=O)n(Cc2ccc(P(=O)(O)O)c(F)c2)c2c3ccc4c(c3ncc21)OCO4 [Compound 22]
< 10 | NS(=O)(=O)c1ccc(Cn2c(=O)[nH]c3cnc4c5c(ccc4c32)OCO5)cc1F [Compound 37]
< 10 | NS(=O)(=O)c1ccc(Cn2c(=O)[nH]c3cnc4c5c(ccc4c32)OCO5)c(F)c1F [Compound 38]
< 10 | O=c1n(CCCN2CCOCC2)c2cnc3c4c(ccc3c2n1Cc1ccc(P(=O)(O)O)c(F)c1)OCO4 [Compound 32]
< 10 | O=c1[nH]c2cnc3c4c(ccc3c2n1Cc1ccc(P(=O)(O)O)c(F)c1F)OCO4 [Compound 9]
< 10 | NS(=O)(=O)c1cc(F)c(Cn2c(=O)[nH]c3cnc4c5c(ccc4c32)OCO5)c(F)c1 [Compound 35]
< 10 | O=c1n(CC2CCC2)c2cnc3c4c(ccc3c2n1Cc1ccc(P(=O)(O)O)c(F)c1)OCO4 [Compound 19]
< 10 | Cn1c(=O)n(Cc2ccc(P(=O)(O)O)c(F)c2)c2c3ccc4c(c3ncc21)OCO4 [Compound 3, (2-fluoro-4-((6-methyl-7-oxo-6,7-dihydro-8H-[1,3]dioxolo[4,5-h]imidazo[4,5-c]quinolin-8-yl)methyl)phenyl)phosphonic acid]
< 10 | O=c1n(Cc2ccc(P(=O)(O)O)c(F)c2)c2c3ccc4c(c3ncc2n1C1CC1)OCO4 [Compound 11]
< 10 | NS(=O)(=O)c1ccc(Cn2c(=O)[nH]c3cnc4c5c(ccc4c32)OCO5)nc1 [Compound 40]
< 10 | CC(C)n1c(=O)n(Cc2ccc(P(=O)(O)O)c(F)c2)c2c3ccc4c(c3ncc21)OCO4 [Compound 10]
< 10 | CCn1c(=O)n(Cc2ccc(S(C)(=N)=O)cc2)c2c3ccc4c(c3ncc21)OCO4 (stereo not drawn) [Compound 45]
< 10 | Cc1nc2cnc3c4c(ccc3c2n1Cc1ccc(P(=O)(O)O)c(F)c1)OCO4 [Compound 54, (2-fluoro-4-((7-methyl-8H-[1,3]dioxolo[4,5-h]imidazo[4,4-c]quinolin-8-yl)methyl)phenyl)phosphonic acid]

IC50 [nM] | Compound
< 10 | O=c1[nH]c2cnc3c4c(ccc3c2n1Cc1cc(F)c(P(=O)(O)O)cc1Cl)OCO4 [Compound 13]
< 10 | CCn1c(=O)n(Cc2ccc(P(=O)(O)O)c(F)c2)c2c3ccc4c(c3ncc21)OCO4 [Compound 6, (4-((6-ethyl-7-oxo-6,7-dihydro-8H-[1,3]dioxolo[4,5-h]imidazo[4,5-c]quinolin-8-yl)methyl)-2-fluorophenyl)phosphonic acid]
< 10 | O=c1n(Cc2ccc(P(=O)(O)O)c(F)c2)c2c3ccc4c(c3ncc2n1C(F)F)OCO4 [Compound 51]
< 10 | CC(C)Cn1c(=O)n(Cc2ccc(P(=O)(O)O)c(F)c2)c2c3ccc4c(c3ncc21)OCO4 [Compound 18]
< 10 | O=c1n(CCCOC2CCOCC2)c2cnc3c4c(ccc3c2n1Cc1ccc(P(=O)(O)O)c(F)c1)OCO4 [Compound 29]
< 10 | O=c1[nH]c2cnc3c4c(ccc3c2n1Cc1ccc(P(=O)(O)O)cc1F)OCO4 [Compound 4, (3-fluoro-4-((7-oxo-6,7-dihydro-8H-[1,3]dioxolo[4,5-h]imidazo[4,5-c]quinolin-8-yl)methyl)phenyl)phosphonic acid]
< 10 | O=c1n(CC(F)(F)F)c2cnc3c4c(ccc3c2n1Cc1ccc(P(=O)(O)O)c(F)c1)OCO4 [Compound 23]
< 10 | NS(=O)(=O)c1ccc(Cn2c(=O)[nH]c3cnc4c5c(ccc4c32)OCO5)cc1 [Compound 36]
< 10 | C[S@](=N)(=O)c1ccc(Cn2c(=O)[nH]c3cnc4c5c(ccc4c32)OCO5)cc1 (single isomer, unassigned) [Compound 43-P2]
< 10 | COc1cc2c(ncc3[nH]c(=O)n(Cc4ccc(P(=O)(O)O)c(F)c4)c32)c2c1OCO2 [Compound 55]
< 10 | CCn1c(=O)n(Cc2c(F)cc(S(N)(=O)=O)cc2F)c2c3ccc4c(c3ncc21)OCO4 [Compound 41]
< 10 | O=c1n(CC2CCCC2)c2cnc3c4c(ccc3c2n1Cc1ccc(P(=O)(O)O)c(F)c1)OCO4 [Compound 20]
< 10 | O=c1n(Cc2ccc(P(=O)(O)O)c(F)c2)c2c3ccc4c(c3ncc2n1-c1ccccc1)OCO4 [Compound 52]
< 10 | CN(C)CCCn1c(=O)n(Cc2ccc(P(=O)(O)O)c(F)c2)c2c3ccc4c(c3ncc21)OCO4 [Compound 34]
< 10 | CS(=N)(=O)c1ccc(Cn2c(=O)[nH]c3cnc4c5c(ccc4c32)OCO5)cc1F (stereo not drawn) [Compound 42]
< 10 | CS(=O)(=O)CCn1c(=O)n(Cc2ccc(P(=O)(O)O)c(F)c2)c2c3ccc4c(c3ncc21)OCO4 [Compound 31]
< 10 | O=c1n(CC(F)F)c2cnc3c4c(ccc3c2n1Cc1ccc(P(=O)(O)O)c(F)c1)OCO4 [Compound 7]
< 10 | CN(C)CCn1c(=O)n(Cc2ccc(P(=O)(O)O)c(F)c2)c2c3ccc4c(c3ncc21)OCO4 [Compound 33]
< 10 | O=c1[nH]c2cnc3c4c(ccc3c2n1Cc1cc(F)c(P(=O)(O)O)cc1F)OCO4 [Compound 17]
< 10 | NS(=O)(=O)c1cnc(Cn2c(=O)[nH]c3cnc4c5c(ccc4c32)OCO5)c(F)c1 [Compound 63]
< 10 | O=c1[nH]c2cnc3c4c(ccc3c2n1Cc1c(F)cc(P(=O)(O)O)c(F)c1F)OCO4 [Compound 12]
< 10 | O=c1n(Cc2ccc(P(=O)(O)O)c(F)c2)c2c3ccc4c(c3ncc2n1C1CCOCC1)OCO4 [Compound 28]
< 10 | NS(=O)(=O)c1ccc(Cn2c(=O)[nH]c3cnc4c5c(ccc4c32)OCO5)c(F)c1 [Compound 39]
< 10 | O=c1[nH]c2cnc3c4c(ccc3c2n1Cc1c(F)cc(B(O)O)cc1F)OCO4 [Compound 46]

— US20250206763A1, “ENPP1 INHIBITOR” (SHANGHAI QILU PHARMACEUTICAL RESEARCH AND DEVELOPMENT …, priority 2022, published 2025)
